Experimental data published in patent US20180073018A1, “COMPOSITIONS AND METHODS FOR SPECIFIC REACTIVATION OF HIV LATENT RESERVOIR” (priority 2015, published 2018).

Tested on: TZM-bI cells
Experiment: CellTiter-Glo luminescent cell viability assay in TZM-bI cells
Format: cell-based
Conditions: TZM-bI, 5,000 nM
Procedure: FIG. 10A, FIG. 10B: TZM-bI cells were infected with indicated lentiviruses for 1 d and triple antibiotic selection with puromycin/hygromycin/zeoin (P/H/Z) was maintained for 4 d before passage, OneGlo luciferase reporter assay (FIG. 10A) and CellTiter-Glo® luminescent cell viability assay (FIG. 10B). FIG. 10C, FIG. 10D: CHME5 cells were infected with indicated lentiviruses and cultured for 5 d in the absence or presence of P/H/Z triple selection. Flow cytometry analysis was performed for reactivation efficiency (FIG. 10C) and total survival cell number (FIG. 10D). FIG. 10E: Caspase-Glo® 3/7 Assay was performed at 2 dpi to evaluate apoptotic cell death. […] FIG. 10F, FIG. 10G: The 2D10 cells were infected for 1 and 4 dpi, and the reactivation efficiency (FIG. 10F) and relative total survival cell number (FIG. 10G) were determined by flow cytometry. *p<0.05 and **p<0.01 indicate statistical significance by ANOVA and FLSD test.
FIG. 12A, FIG. 12B, FIG. 12C: The dCas9-VPH stable TZM-bI cells were treated with SAHA or infected with indicated msgRNAs lentivirus for 2-4 d before luminescence reporter assay (FIG. 12A) and CELLTITER-GLO® luminescent cell viability assay (FIG. 12B). […]
The cell growth/proliferation was determined by the trypan blue exclusion hemocytometry, and CELLTITER-GLO luminescence viability assay (Promega). […]

`O=C(CCCCCCC(=O)Nc1ccccc1)NO` [SAHA, suberoylanilide hydroxamic acid] was tested, and the cell viability was “killed all the cells”.
